Tests used:
[1] = system: L-687,414-induced hyperlocomotion; assay: L-687,414-induced hyperlocomotion; format: in vivo, mouse; settings: Dose ip 30 mg/kg, mice, 50 mg/kg s.c. L-687,414; for inhibition in vivo at 30 mg/kg: Mus musculus
Experimental: The described compounds of formula I reduce L-687,414-induced hyperlocomotion. This was assessed by using a computerized Digiscan 16 Animal Activity Monitoring System (Omnitech Electronics, Columbus, Ohio) to quantify locomotor activity. Animals were kept under a 12 h light/dark cycle and experiments were performed during the light period. Each activity monitoring chamber consisted of a Plexiglas box (41×41×28 cm; W×L×H) with sawdust bedding on the floor surrounded by invisible horizontal and vertical infrared sensor beams. The test boxes were divided by a Plexiglas cross providing each mouse with 20×20 cm of moving space. Cages were connected to a Digiscan Analyzer linked to a computer that constantly collected the beam status information. Records of photocell beam interruptions for individual animals were taken every 5 min over the duration of the experimental session and the sum of the first 6 periods was used as the final parameter. At least 8 mice were used in each treatment group. Compounds were administered either p.o. 15 min before a s.c. injection of 50 mg/kg of L-687,414, or i.p. at the same time as a s.c. injection of 50 mg/kg of L-687,414. Mice were then transferred from their home cage to the recording chambers for a 15-min habituation phase allowing free exploration of the new environment. Horizontal activity was then recorded for a 30-min time period. The % inhibition of L-687,414-induced hyperlocomotion was calculated according to the equation:
((Veh+L-687,414 horizontal activity−drug+L-687,414 horizontal activity)/Veh+L-687,414 horizontal activity)×100
ID50 values, defined as doses of each compound producing 50% inhibition of L-687,414-induced hyperlocomotion, were calculated by linear regression analysis of a dose-response data using an Excel-based computer-fitting program.
As data was not presupposed to be normally distributed, groups treated with test compounds were statistically compared with the control (vehicle-treated) group using one-tailed Mann Whitney U tests. In statistics, the Mann-Whitney U test (also called the Mann-Whitney-Wilcoxon (MWW) or Wilcoxon rank-sum test) is a non-parametric statistical hypothesis test for assessing whether one of two samples of independent observations tends to have larger values than the other. It is one of the most well-known non-parametric significance tests. […] P values given in table 1 are one-tailed since only decreases in locomotion were expected and tested for (Mann, H. B., Whitney, D. R. (1947), “On a Test of Whether one of Two Random Variables is Stochastically Larger than the Other”, Annals of Mathematical Statistics, 18 (1), 50-60).

mouse ENT-1 transporter = biological target: T1, mouse ENT-1 transporter (Mus musculus, UniProt Q9JIM1); assay: Measure of adenosine transport activity (ENT1 adenosine uptake inhibition); format: cell-based; settings: stable cells expressing mouse ENT-1, [2,8-3H]-adenosine 6 nM, 20 min
T1 construct: expressed in transfected cells
T1 sequence (Q9JIM1 1-460): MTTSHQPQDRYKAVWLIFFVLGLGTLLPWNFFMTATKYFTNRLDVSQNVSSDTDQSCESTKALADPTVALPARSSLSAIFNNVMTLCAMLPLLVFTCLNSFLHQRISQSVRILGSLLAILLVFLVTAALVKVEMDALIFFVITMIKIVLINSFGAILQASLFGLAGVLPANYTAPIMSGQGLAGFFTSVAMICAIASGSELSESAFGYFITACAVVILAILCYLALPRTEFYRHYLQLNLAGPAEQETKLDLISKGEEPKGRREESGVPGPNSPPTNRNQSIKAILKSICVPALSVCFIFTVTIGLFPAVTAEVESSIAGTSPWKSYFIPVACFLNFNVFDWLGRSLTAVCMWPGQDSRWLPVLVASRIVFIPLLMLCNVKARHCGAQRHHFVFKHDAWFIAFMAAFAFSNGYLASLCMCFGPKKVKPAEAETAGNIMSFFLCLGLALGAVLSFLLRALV
Procedure, shortened: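 Stable mouse ENT-1 cells, 60,000/well, washed into pH 7.4 Hepes-Tris uptake buffer and incubated at RT with compound (1% DMSO final) for 20 min with shaking. Non-specific uptake defined with 10 μM NBTI; cell-associated radioactivity counted by scintillation after ice-cold washes.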

mice = assay: SmartCube behavioral signature similarity analysis; format: in vivo, mouse; parameters: key to discrimination rate vs Clozapine (similarity analysis) / discrimination rate vs Olanzapine (similarity analysis) / discrimination rate vs Risperidone (similarity analysis): fraction; 0.5 = zero distinguishability between the two drugs; settings: for discrimination rate vs Clozapine (similarity analysis) / discrimination rate vs Olanzapine (similarity analysis) / discrimination rate vs Risperidone (similarity analysis): 5 mg/kg i.p., SmartCube, rate of 0.70 or lower = similar
Text: In addition to the reversal of L-687,414 induced hyperlocomotion experiment as described above, some compounds of the present invention have been tested in SmartCube®, an automated system in which the behaviors of compound-treated mice in response to multiple challenges are captured by digital video and analyzed with computer algorithms (Roberds et al., Frontiers in Neuroscience, 2011, Vol. 5, Art. 103, 1-4; Vadim Alexandrov, Dani Brunner, Taleen Hanania, Emer Leahy Eur. J. Pharmacol. 2015, 750, 82-99). In this way, the neuro-pharmacological effects of a test compound can be predicted by similarity to major classes of compounds, such as antipsychotics, anxiolytics and antidepressants.
As mentioned above, some compounds have been tested in SmartCube©, an analytical system developed by PsychoGenics Inc.
SmartCube® was used to compare the behavioral signature of a test compound to a database of behavioral signatures obtained from a large set of clinically approved reference drugs, grouped per indications. In this way, the neuro-pharmacological effects of a test compound can be predicted by similarity to major classes of compounds, such as antipsychotics, anxiolytics and antidepressants. This approach is ideally suited to screen collections of existing drugs or drug candidates with previously unknown neuropharmacology, which could expedite the development of new and unexpected treatments for psychiatric disorders.
Some compounds of the present invention were injected i.p. at different doses 15 minutes before the test. At least 8 mice were used in each treatment group. Digital videos of the subjects were processed with computer vision algorithms to extract over 2000 dependent measures including frequency and duration of many different behavioral states. The results of the classifications are presented as bar charts for each compound and dose (mg/kg), the Y-axis indicates the relative probability that the test compound will show efficacy in the specific CNS indication.
For comparison, the behavioral signatures of the atypical antipsychotics clozapine, olanzapine and risperidone are shown in FIG. 2. Compounds of the present invention show similar signatures to those of atypical antipsychotics. An independent analysis was performed on the unclassified data to determine the similarity of the example compounds to active doses of known atypical antipsychotics. For this analysis, we use discrimination rate as the measure of separability between the two drugs, i.e. one drug's “distinguishability” from another. A rate equal to 50% (or 0.5) corresponds to zero distinguishability. […] In most cases, the example compounds show a similarity to risperidone, clozapine and olanzapine with a discrimination rate of <0.70.

Molecule | IC50 (mouse ENT-1 transporter) [nM] | inhibition in vivo at 30 mg/kg [1] [%] | other results
3,3-dimethyl-1,6-bis(5-methylpyrazin-2-yl)indolin-2-one [Example 91] | 1820 | – | L-687,414-induced hyperlocomotion Inhibition, ip [%] [1]: 73.7%
Cc1ncc(-c2ccc3c(c2)N(c2ccn(C)n2)C(=O)C3(C)C)cn1 [Example 4, 3,3-Dimethyl-1-(1-methyl-1H-pyrazol-3-yl)-6-(2-methylpyrimidin-5-yl)indolin-2-one] | 951 | 93.4 | –
Cc1cc(N2C(=O)C(C)(C)c3ccc(-c4cnc(C)nc4)cc32)c(F)cn1 [Example 25, 1-(5-Fluoro-2-methylpyridin-4-yl)-3,3-dimethyl-6-(2-methylpyrimidin-5-yl)indolin-2-one] | – | – | SmartCube similarity to major drug classes (mice): similarity to atypical antipsychotics; discrimination rate vs Clozapine (similarity analysis) (mice): 0.61; discrimination rate vs Olanzapine (similarity analysis) (mice): 0.62; discrimination rate vs Risperidone (similarity analysis) (mice): 0.74
CC(C)c1cn(-c2ccc3c(c2)N(c2ccn(C)n2)C(=O)C3(C)C)cn1 [Example 37, 6-(4-Isopropylimidazol-1-yl)-3,3-dimethyl-1-(1-methylpyrazol-3-yl)indolin-2-one] | 6750 | 73.8 | –
Cc1ncc(-c2ccc3c(c2)N(c2ccnc(F)c2)C(=O)C3(C)C)cn1 [Example 45, 1-(2-Fluoropyridin-4-yl)-3,3-dimethyl-6-(2-methylpyrimidin-5-yl)indolin-2-one] | 1000 | 80.5 | –
Cc1cnc(N2C(=O)C(C)(C)c3ccc(-c4cnc(C)nc4)cc32)nc1 [Example 53, 3,3-Dimethyl-1-(5-methylpyrimidin-2-yl)-6-(2-methylpyrimidin-5-yl)indolin-2-one] | 1520 | – | SmartCube similarity to major drug classes (mice): similarity to atypical antipsychotics; discrimination rate vs Clozapine (similarity analysis) (mice): 0.59; discrimination rate vs Olanzapine (similarity analysis) (mice): 0.61; discrimination rate vs Risperidone (similarity analysis) (mice): 0.62
Cc1ncc(-c2ccc3c(c2)N(c2cnccn2)C(=O)C3(C)C)cn1 [Example 77, 3,3-dimethyl-6-(2-methylpyrimidin-5-yl)-1-(pyrazin-2-yl)indolin-2-one] | 2410 | 92.6 | –
Cc1ncc(-c2ccc3c(c2)N(c2ccnnc2)C(=O)C3(C)C)cn1 [Example 120, 3,3-dimethyl-6-(2-methylpyrimidin-5-yl)-1-(pyridazin-4-yl)indolin-2-one] | 3600 | 90.8 | –
Cc1ncc(-c2ccc3c(c2)N(c2cnnc(Cl)c2)C(=O)C3(C)C)cn1 [Example 126, 1-(6-chloropyridazin-4-yl)-3,3-dimethyl-6-(2-methylpyrimidin-5-yl)indolin-2-one] | 2210 | 74.7 | –
Cc1ncc(-c2ccc3c(c2)N(c2nccnc2C)C(=O)C3(C)C)cn1 [Example 127, 3,3-dimethyl-1-(3-methylpyrazin-2-yl)-6-(2-methylpyrimidin-5-yl)indolin-2-one] | 7730 | 72.8 | –

The next lines start with results.

IC50 (mouse ENT-1 transporter) [nM] | Molecule | inhibition in vivo at 30 mg/kg [1] [%] | other results
431 | Cc1ncc(-c2ccc3c(c2)N(c2ccncc2)C(=O)C3(C)C)cn1 [Example 1, 3,3-Dimethyl-6-(2-methylpyrimidin-5-yl)-1-(pyridin-4-yl)indolin-2-one] | 95.4 | –
613 | Cc1ncc(-c2ccc3c(c2)N(c2cn(C)cn2)C(=O)C3(C)C)cn1 [Example 2, 3,3-Dimethyl-1-(1-methyl-1H-imidazol-4-yl)-6-(2-methylpyrimidin-5-yl)indolin-2-one] | 95.7 | –
55 | Cc1ccc(N2C(=O)C(C)(C)c3ccc(-c4cnc(C)nc4)cc32)nn1 [Example 48, 3,3-Dimethyl-1-(6-methylpyridazin-3-yl)-6-(2-methylpyrimidin-5-yl)indolin-2-one] | – | SmartCube similarity to major drug classes (mice): similarity to atypical antipsychotics; discrimination rate vs Clozapine (similarity analysis) (mice): 0.58; discrimination rate vs Olanzapine (similarity analysis) (mice): 0.61; discrimination rate vs Risperidone (similarity analysis) (mice): 0.67
340 | Cc1ncc(-c2ccc3c(c2)N(c2ccc(C)c(C)n2)C(=O)C3(C)C)cn1 [Example 70, 1-(5,6-dimethylpyridin-2-yl)-3,3-dimethyl-6-(2-methylpyrimidin-5-yl)indolin-2-one] | 93.5 | –
47 | Cc1ncc(-c2ccc3c(c2)N(c2cnc(C4CC4)cn2)C(=O)C3(C)C)cn1 [Example 95, 1-(5-cyclopropylpyrazin-2-yl)-3,3-dimethyl-6-(2-methylpyrimidin-5-yl)indolin-2-one] | 76.9 | –
102 | Cc1ncc(-c2ccc3c(c2)N(c2cncc(C4CC4)n2)C(=O)C3(C)C)cn1 [Example 97, 1-(6-cyclopropylpyrazin-2-yl)-3,3-dimethyl-6-(2-methylpyrimidin-5-yl)indolin-2-one] | 78.5 | –
203 | Cc1ncc(-c2ccc3c(c2)N(c2ncc(Cl)cn2)C(=O)C3(C)C)cn1 [Example 113, 1-(5-chloropyrimidin-2-yl)-3,3-dimethyl-6-(2-methylpyrimidin-5-yl)indolin-2-one] | 91.1 | –
226 | Cc1cc(N2C(=O)C(C)(C)c3ccc(-c4cnc(C)nc4)cc32)sn1 [Example 124, 3,3-dimethyl-1-(3-methylisothiazol-5-yl)-6-(2-methylpyrimidin-5-yl)indolin-2-one] | 53.3 | –
132 | Cc1ncc(-c2ccc3c(c2)N(c2ncc(C)s2)C(=O)C3(C)C)cn1 [Example 125, 3,3-dimethyl-6-(2-methylpyrimidin-5-yl)-1-(5-methylthiazol-2-yl)indolin-2-one] | 52 | –

— patent US20230391778A1, “INDOLIN-2-ONE OR PYRROLO -PYRIDIN -2 -ONE DERIVATIVES” (Hoffmann-La Roche Inc., priority 2014, published 2023)
